Results: patent US20240174690A1, “ANNULATED 2-AMINO-3-CYANO THIOPHENES AND DERIVATIVES FOR THE TREATMENT OF CANCER” (BOEHRINGER INGELHEIM INTERNATIONAL GMBH, priority 2021, published 2024)

Assays:
[1] = Caco-2 assay (permeability PappAB, PappBA, efflux ratio); format: in vitro ADME; conditions: human, Caco-2, 10 μM test compound, pH 7.4; for Papp A→B at 90 min, 10 μM: apical to basolateral; for efflux ratio at 90 min, 10 μM: efflux ratio PappBA/PappAB, read-out: Caco ER
In short: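 Confluent Caco-2 monolayers on filter supports, 0.25% BSA in both donor and receiver buffer; transport measured a-b and b-a. After 25-30 min preincubation at 37 °C, samples at 0, 30, 60, 90 min quantified by HPLC/MS/MS. Papp from receiver amount per time, filter area and initial donor concentration; efflux ratio = PappBA/PappAB.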

KRAS (G12C)::SOS1 = KRAS (G12C)::SOS1 (Homo sapiens (Human), UniProt P01116, C118S/C51S/C80L/G12C); test: KRAS::SOS1 AlphaScreen binding assay, KRAS G12C
Chain of KRAS (G12C)::SOS1 (P01116 other isoform, or with tags, fused parts or gaps G12C/C51S/C80L/C118S): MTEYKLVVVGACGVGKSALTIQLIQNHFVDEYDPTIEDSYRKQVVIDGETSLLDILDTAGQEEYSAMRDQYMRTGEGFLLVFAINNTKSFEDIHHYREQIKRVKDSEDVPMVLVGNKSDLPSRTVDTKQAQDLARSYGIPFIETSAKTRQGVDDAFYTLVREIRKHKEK
In short: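 Compounds (up to 100 μM, eleven fivefold dilutions in duplicate) were incubated 30 min with KRAS 1-169 (10 nM, or 7.5 nM for G12C), GST-SOS1 564-1049 (5 nM for G12D/G12C, 10 nM for others) and 10 μM GDP in PBS buffer with BSA and Tween. Donor/acceptor beads were then added for 60 min at room temperature, and IC50 came from a 4-parameter fit of the AlphaScreen signal.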

[2] = Plasma protein binding assay (PPB), equilibrium dialysis, 10% FCS in PBS; format: in vitro ADME; conditions: bovine, read-out: PPB 10% FCS (% fu)
In short: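 Equilibrium dialysis (5-10 kg/mol cut-off membrane) of 1-10 μmol/L test compound in 10% FCS/PBS against PBS with or without dextran, 3-5 h at 37° C. Compound in each chamber quantified by LC-MS after protein precipitation; fu calculated from Cserum and Cbuffer.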

Papp A→B at 90 min, 10 μM [1] [×10⁻⁶ cm/s]	efflux ratio at 90 min, 10 μM [1]	IC50 (KRAS (G12C)::SOS1) [nM]	fraction unbound [2]	SMILES
0.5	33.3	74	0.16	C[C@H]1CN(C)CCCN1c1cc(N2CC[C@H](N(C)C)C2)nc(-c2noc3c2CCC[C@@]32CCCc3sc(N)c(C#N)c32)n1 [II-16]
11.1	3.3	1	0.14	CNC(=O)c1ccn(-c2cc(O[C@@H](C)[C@@H]3CCCN3C)nc(-c3noc4c3CCC[C@@]43CCCc4sc(N)c(C#N)c43)n2)n1 [II-20]
0.6	32.2	7	0.62	C[C@H](Oc1cc(N2CCC(N(C)C)CC2)nc(-c2noc3c2CCC[C@@]32CCCc3sc(N)c(C#N)c32)n1)[C@@H]1CCCN1C [II-48]
11	3.1	4	0.14	C[C@H](Oc1cc(N2CCNC3(CC3)C2)nc(-c2onc3c2CCC[C@@]32CCCc3sc(N)c(C#N)c32)n1)[C@@H]1C[C@@H](F)CN1C [I-45]
10	2.9	3	0.15	CO[C@H]1CCN(C)[C@@H]1[C@H](C)Oc1cc(N2CCNC3(CC3)C2)nc(-c2onc3c2CCC[C@@]32CCCc3sc(N)c(C#N)c32)n1 [I-49]
–	0.8	4	0.06	[2H]C([2H])([2H])N1C[C@H](F)C[C@H]1[C@H](C)Oc1cc(N2CCN(C)C3(CC3)C2)nc(-c2noc3c2CCC[C@@]32CCCc3sc(N)c(C#N)c32)n1 [II-209]
–	5.3	7	0.64	C[C@H](Oc1cc(N2CC[C@H](N(C)C)C2)nc(-c2noc3c2CCC[C@@]32CCCc3sc(N)c(C#N)c32)n1)[C@@H]1C[C@@H](F)CN1C [II-15]
3.6	9.2	2	0.54	C[C@H](Oc1cc(-c2ccn(C3COC3)n2)nc(-c2onc3c2CCC[C@@]32CCCc3sc(N)c(C#N)c32)n1)[C@@H]1CCCN1C [I-34]
3	10.7	2	0.23	C[C@H](Oc1cc(-c2ccn(CC(C)(C)O)n2)nc(-c2onc3c2CCC[C@@]32CCCc3sc(N)c(C#N)c32)n1)[C@@H]1CCCN1C [I-26]
14	3.4	1	0.28	COCCNC(=O)c1ccn(-c2cc(O[C@@H](C)[C@@H]3CCCN3C)nc(-c3onc4c3CCC[C@@]43CCCc4sc(N)c(C#N)c43)n2)n1 [I-58]
15	1.5	2	0.39	C[C@H](Oc1cc(C2CCCO2)nc(-c2noc3c2CCC[C@@]32CCCc3sc(N)c(C#N)c32)n1)[C@@H]1CCCN1C (stereo partly drawn) [II-44]
< 0.1	–	2	0.63	C[C@H](Oc1cc(N2CCNC3(COC3)C2)nc(-c2noc3c2CCC[C@@]32CCCc3sc(N)c(C#N)c32)n1)[C@@H]1CCCN1C [II-31]
0.3	76.6	2	0.31	C[C@H](Oc1cc(N2CCNC(C)(C)C2)nc(-c2noc3c2CCC[C@@]32CCCc3sc(N)c(C#N)c32)n1)[C@@H]1CCCN1C [II-32]
9.2	1.5	3	0.2	CO[C@@H]1C[C@@H]([C@H](C)Oc2cc(-c3ccn(C)n3)nc(-c3onc4c3CCC[C@@]43CCCc4sc(N)c(C#N)c43)n2)N(C)C1 [I-23]
0.8	39.7	3	0.53	C[C@H](Oc1cc(N2CCNC3(CCC3)C2)nc(-c2noc3c2CCC[C@@]32CCCc3sc(N)c(C#N)c32)n1)[C@@H]1CCCN1C [II-40]
